Results from patent US5162336A, “Tetrahydro-pyrido-indoles as cholecystokinin and gastrin antagonists” (Rhone-Poulenc Rorer Pharmaceuticals Inc., priority 1990, dated 1992).

The compounds below were run against T1, CCK-A receptor (Rattus norvegicus, UniProt P30551) (assay: CCK-A receptor binding assay (displacement of 3H-L-364,718 from rat pancreas membranes)). Settings: 3H-L-364,718 0.2 nM, 37° C., 30 min, read-out: In vitro Binding Data IC50 CCK.
T1 construct: from tissue; host or cells: pancreas membranes of Sprague-Dawley rat
T1 sequence (P30551 1-444): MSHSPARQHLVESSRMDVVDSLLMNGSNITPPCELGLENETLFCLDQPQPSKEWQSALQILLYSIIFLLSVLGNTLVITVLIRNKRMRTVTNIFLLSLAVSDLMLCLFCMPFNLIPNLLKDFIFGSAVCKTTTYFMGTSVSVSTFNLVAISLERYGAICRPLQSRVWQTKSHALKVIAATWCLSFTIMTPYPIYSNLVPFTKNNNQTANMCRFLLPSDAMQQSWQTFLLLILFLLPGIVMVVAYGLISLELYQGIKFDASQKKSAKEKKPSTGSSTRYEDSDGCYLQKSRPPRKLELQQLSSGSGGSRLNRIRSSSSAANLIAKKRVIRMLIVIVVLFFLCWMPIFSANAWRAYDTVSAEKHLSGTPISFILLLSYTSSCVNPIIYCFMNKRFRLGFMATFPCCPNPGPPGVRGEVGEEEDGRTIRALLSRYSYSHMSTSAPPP
Parameters: species or system Sprague-Dawley rat
Description: Washer Buffer (for use with Brandel Cell Harvester):
30 liters of 50 mM Tris, ph 7.7: Dissolve 181.7 g. Tris base in 4 1. deionized water at room temperature. Adjust pH to 7.7 with 6 N HCl and Q.S. to 30 1.
50 mM Tris-Cl, 5 mM MgCl2, 5 mM dithio-thretiol, 0.14 mg/ml bacitracin, and 2 mg/ml bovine serum albumin.
1 liter of 5X stock buffer:
30.28 g. Tris base per 800 ml D.I. water 5.09 g. MgCl2 6 H2 O, pH to 7.7 at room temperature with 6N HCl and Q.S. 1 liter, store at 4° C.
250 ml working buffer kept on ice:
50 ml of 5X stock buffer 0.1928 g. dithiothretiol (5 mM), 35 mg bacitracin (0.14 mg/ml), and 0.5 g. BSA (2mg/ml).
Unlabeled L-364,718(nonpeptide ligand):
Unlabeled L-364,718 (300 nM final concentration) is used to define nonspecific binding. A 3 mM solution is made in absolute ethanol and stored in a scintillation vial at -70° C. Aliquots are diluted 100-fold in the assay.
A Sprague-Dawley rat is sacrificed by asphyxiation with carbon dioxide and the pancreas removed. The tissue is immersed in cold wash buffer and carefully trimmed of fat, connective tissue, blood vessels, blotted and weighed. The tissue is homogenized in a Sorvall SS-34 centrifuge tube in 50 volumes of wash buffer using a Polytron at setting 7 for 15 seconds. The tissue is centrifuged (Sorvall SS-34) at 19,000 rpm for 10 min. The supernatant is poured off and the pellet resuspended in sufficient buffer to obtain a contraction of 40 mg tissue wet weight/ml. Separate aliquots (2,3ml) are placed in each of 8 centrifuge tubes and centrifuged as before. The supernatants are poured off and the pellets stored at -70° C. Stored pellets are sufficient for the assay of 160 tubes and are stable for 1-2 months.
During the assay the stored membranes are resuspended in 40 ml of assay buffer by scraping the pellet off the wall of the centrifuge tube and washing it into a teflon-glass homogenizer. Membranes are resuspended by 5 passes with the teflon pestle and the membranes stored on ice until ready for use.
Preparation of Compounds:
Compounds are prepared in DMSO (dimethyl sulfoxide) or in assay buffer. The majority of structures active as CCK antagonists generally require DMSO for complete solubility. Approximately 2-3 mg of compound is weighed directly into a 13×100 mm test tube and sufficient DMSO added to obtain a working stock solution at a concentration 100 fold greater than the highest concentration being tested in the assay. A total of 10 μl of each concentration of drug is added into a final volume of 1 ml to yield a 100 fold dilution of the, working stock solution. Control binding tubes ("totals and nonspecifics") are also treated with 10 μl DMSO.
^3 H-L-364,718 is obtained from New England Nuclear (Cat. #971) and is used as supplied. The final assay concentration of ^3 H-L-364,718 in assay buffer should be 0.2 nM in a final assay volume of 1 ml. ^3 H-L-364,718 (0.2 pmol) is added into the assay in a volume of 25 μl (8 nM working stock solution). The required dilution (usually>1000 fold) is obtained by dividing the working stock concentration into the concentration of the specific lot.
Samples are prepared in triplicate and a "total" (buffer addition) and "nonspecific" (300 nM unlabeled L-364,718) set of tubes included in each set of 24 tubes. The remaining 6 sets of triplicates are used either for screening or IC50 determinations. The order of addition is drugs-DMSO, buffer, unlabeled L-364,718, ^3 H-L-364,718, and to start the assay, membranes.
While tubes are incubating a shaking water bath at 37° C. for 30 min Brandel deposit/dispense filters are presoaked in wash buffer. Following the end of the incubation, sets of 24 tubes are rapidly washed with assay buffer as follows. Assay buffer is added to the incubation tubes to the height of the uppermost cross support in the standard Brandel test tube rack and the contents immediately aspirated. This process is repeated twice more, the filter removed, marked and the next set of 24 tubes processed. […]

SMILES | IC50 [µM]
CC(C)C[C@H](NC(=O)[C@H]1Cc2c([nH]c3ccccc23)CN1)C(=O)N[C@@H](CC(=O)O)C(N)=O [Example 1, N-[(3R)-1,2,3,4-tetrahydro-9H-pyrido[3,4-b]indole-3-carboxyl]-L-leucyl-L-aspartic acid amide] | > 300
CC(C)C[C@H](NC(=O)[C@@H]1Cc2c([nH]c3ccccc23)CN1)C(=O)N[C@@H](CC(=O)O)C(N)=O [Example 2, N-[(3S)-1,2,3,4-tetrahydro-9H-pyrido[3,4-b]indole-3-carboxyl]-L-leucyl-L-aspartic acid amide] | > 300
NC(=O)[C@H](CC(=O)O)NC(=O)[C@H]1Cc2c([nH]c3ccccc23)CN1 [Example 3, N-[(3R)-1,2,3,4-tetrahydro-9H-pyrido[3,4-b]-indole-3-carboxyl]-L-aspartic acid amide] | > 300
NC(=O)[C@H](CC(=O)O)NC(=O)[C@@H]1Cc2c([nH]c3ccccc23)CN1 [Example 4, N-[(3S)-1,2,3,4-tetrahydro-9H-pyrido[3,4-b]indole-3-carboxyl]-L-aspartic amide] | > 300
O=C(NCC(c1ccccc1)c1ccccc1)[C@H]1Cc2c([nH]c3ccccc23)CN1 [Example 5, (3R)-3-(2,2'-diphenyl)ethylcarbamoyl-1,2,3,4-tetrahydro-9H-pyrido[3,4-b]indole] | 50 to 60
O=C(NC(c1ccccc1)c1ccccc1)[C@H]1Cc2c([nH]c3ccccc23)CN1 [Example 6, (3R)-3-diphenylmethylcarbamoyl-1,2,3,4-tetrahydro-9H-pyrido[3,4-b]indole] | 62
NC(=O)[C@H](CC(=O)O)NC(=O)[C@H]1Cc2c([nH]c3ccccc23)CN1C(=O)c1ccccc1 [Example 8, N-[(3R)-2-benzoyl-1,2,3,4-tetrahydro-9H-pyrido[3,4-b]indole-3-carboxyl]-L-aspartic acid amide] | 82
CC(C)C[C@H](NC(=O)[C@H]1Cc2c([nH]c3ccccc23)CN1C(=O)c1ccccc1)C(=O)N[C@@H](CC(=O)O)C(N)=O [Example 9, N-[(3R)-2-benzoyl-1,2,3,4-tetrahydro-9H-pyrido[3,4-b]indole-3-carboxyl]-L-leucyl-L-aspartic acid amide] | 230
CC(C)C[C@H](NC(=O)[C@H]1Cc2c([nH]c3ccccc23)CN1C(=O)c1ccc2ccccc2c1)C(=O)N[C@@H](CC(=O)O)C(N)=O [Example 10, N-[(3R)-2-(2-naphthoyl)-1,2,3,4-tetrahydro-9H-pyrido[3,4-b]indole-3-carboxyl]-L-leucyl-L-aspartic acid amide] | 25
Cc1cccc(NC(=O)N2Cc3[nH]c4ccccc4c3C[C@@H]2C(=O)N[C@@H](CC(C)C)C(=O)N[C@@H](CC(=O)O)C(N)=O)c1 [Example 11, N-[(3R)-2-(3-methylphenylcarbamoyl)-1,2,3,4-tetrahydro-9H-pyrido[3,4-b]indole-3-carboxyl]-L-leucyl-L-aspartic acid amide] | 34
Cc1cccc(NC(=O)N2Cc3[nH]c4ccccc4c3C[C@H]2C(=O)N[C@@H](CC(C)C)C(=O)N[C@@H](CC(=O)O)C(N)=O)c1 [Example 12, N-[(3S)-2-(3-methylphenylcarbamoyl)-1,2,3,4-tetrahydro-9H-pyrido[3,4-b]indole-3-carboxyl]-L-leucyl-L-aspartic acid amide] | 170
CCCCCN(CCCCC)C(=O)[C@H]1Cc2c([nH]c3ccccc23)CN1C(=O)Nc1cccc(C)c1 [Example 13, (3R)-3-(N,N-dipentylcarbamoyl)-2-(3-methylphenylcarbamoyl)-1,2,3,4-tetrahydro-9H-pyrido[3,4-b]indole] | 10
CC(C)C[C@H](NC(=O)[C@H]1Cc2c([nH]c3ccccc23)CN1C(=O)Nc1ccccc1)C(=O)N[C@@H](CC(=O)O)C(N)=O [Example 14, N-[(3R)-2-phenylcarbamoyl-1,2,3,4-tetrahydro-9H-pyrido[3,4-b]indole-3-carboxyl]-L-leucyl-L-aspartic acid amide] | > 100
CCOC(=O)c1ccc(NC(=O)[C@H]2Cc3c([nH]c4ccccc34)CN2C(=O)OCc2ccccc2)cc1 [Example 15, ethyl 4-N-[(3R)-2-carbobenzoxy-1,2,3,4-tetrahydro-9H-pyrido[3,4-b]indole-3-carboxyl]aminobenzoate] | 9
CCOC(=O)c1cccc(NC(=O)[C@H]2Cc3c([nH]c4ccccc34)CN2C(=O)OCc2ccccc2)c1 [Example 16, ethyl 3-N-[(3R)-2-carbobenzoxy-1,2,3,4-tetrahydro-9H-pyrido[3,4-b]indole-3-carboxyl]aminobenzoate] | 10 to 25
CCOC(=O)c1ccccc1NC(=O)[C@H]1Cc2c([nH]c3ccccc23)CN1C(=O)OCc1ccccc1 [Example 17] | > 10
O=C(Nc1ccccc1C(=O)N1CCCC1)[C@H]1Cc2c([nH]c3ccccc23)CN1C(=O)OCc1ccccc1 [Example 18, pyrrolidine-2-N-[(3R)-2-carbobenzoxy-1,2,3,4-tetrahydro-9H-pyrido-[3,4-b]indole-3-carboxyl]aminobenzamide] | 25
O=C(Nc1ccccc1C(=O)N1CCCC1)[C@@H]1Cc2c([nH]c3ccccc23)CN1C(=O)OCc1ccccc1 [Example 19, pyrrolidine-2-N-[(3S)-2-carbobenzoxy-1,2,3,4-tetrahydro-9H-pyrido[3,4-b]indole-3-carboxyl]aminobenzamide] | 20
O=C(Nc1ccccc1C(=O)N1CCCC1)[C@H]1Cc2c([nH]c3ccccc23)CN1C(=O)c1ccc2ccccc2c1 [Example 20, pyrrolidine-2-N-[(3R)-2-(2-naphthoyl)-1,2,3,4-tetrahydro-9H-pyrido[3,4-b]indole-3-carboxyl]aminobenzamide] | > 30
CCCCN(CCCC)C(=O)c1ccccc1NC(=O)[C@H]1Cc2c([nH]c3ccccc23)CN1C(=O)OCc1ccccc1 [Example 22] | > 10
CCOC(=O)c1ccccc1NC(=O)[C@@H]1Cc2c([nH]c3ccccc23)CN1C(=O)OCc1ccccc1 [Example 23, ethyl 2-N-[(3S)-2-carbobenzoxy-1,2,3,4-tetrahydro-9H-pyrido[3,4-b]indole-3-carboxyl]aminobenzoate] | > 10
CC[C@H](C)[C@H](NC(=O)[C@H]1Cc2c([nH]c3ccccc23)CN1C(=O)Nc1ccc(Cl)c(Cl)c1)C(=O)N[C@@H](CC(=O)O)C(N)=O [Example 24, N-[(3R)-2-(3,4-dichlorophenylcarbamoyl)-1,2,3,4-tetrahydro-9H-pyrido[3,4-b]indol-3-yl]carbonyl-L-isoleucyl-L-aspartic acid amide] | 36
NC(=O)[C@H](CC(=O)O)NC(=O)C1(NC(=O)[C@H]2Cc3c([nH]c4ccccc34)CN2C(=O)Nc2ccc(Cl)c(Cl)c2)CCCC1 [Example 26] | 100
CC(C)C[C@H](NC(=O)[C@H]1Cc2c([nH]c3ccccc23)CN1C(=O)Nc1ccc(Cl)c(Cl)c1)C(=O)NCCC(=O)O [Example 27] | 14
